Values quoted from earlier work in US10392474B2, “Anionic linear polyglycerol derivatives, a method for manufacturing and applications” (FREIE UNIVERSITAET BERLIN, priority 2015, dated 2019).

Settings: after subcutaneous administration

- half-life: 17 h
Structure (SMILES): CO[C@H]1O[C@H](COS(=O)(=O)O)[C@@H](O[C@@H]2O[C@@H](C(=O)O)[C@@H](O[C@H]3O[C@H](COS(=O)(=O)O)[C@@H](O[C@@H]4O[C@H](C(=O)O)[C@@H](O[C@H]5O[C@H](COS(=O)(=O)O)[C@@H](O)[C@H](O)[C@H]5NS(=O)(=O)O)[C@H](O)[C@H]4O)[C@H](OS(=O)(=O)O)[C@H]3NS(=O)(=O)O)[C@H](O)[C@H]2OS(=O)(=O)O)[C@H](O)[C@H]1NS(=O)(=O)O [fondaparinux]
